≈ marks a conversion by molar mass, not a printed value. Entries after “also recorded” stand apart in the source; their conditions may differ.
Experiments:
Sprague Dawley rats [1] = experiment: Rat intraplantar injection model, von Frey test (Example 9); assay type: in vivo, Sprague Dawley rat; details: for sensitivity to mechanical stimulation vs similar doses of treprostinil: both doses
Experimental: (§1) Male Sprague Dawley rats (n=112) were allocated into 14 groups of 8/group. The study was run in 2 cycles, on consecutive days, 7 groups per cycle. Each cycle was composed of a Saline group, PBS group, which served as the control, and also treprostinil at a dose of 100 μg/mL or 1 μg/mL.
(§2) Animals were administered 0.1 mL of test material by subcutaneous injection into the paw pad (Intraplantar injection) at time zero. Animals were subsequently evaluated for their response to mechanical (von Frey filaments) and thermal stimuli, 15 and 90 minutes post-injection. The von Frey test was conducted prior to the thermal test, which followed immediately within minutes for each animal. In addition, clinical observation scoring of the animal's reaction to injection was conducted. FIG. 16 schematically illustrates the study design.
Mechanical pain sensitivity was tested using the von Frey test, which measures the withdrawal force threshold of the animals. The lower the force applied represents a greater sensitivity to the stimulus. The von Frey test was performed 15 and 90 minutes post-Test Item injection.

Sprague Dawley rats [2] = experiment: Rat intraplantar injection model, clinical observation score (Example 9); assay type: in vivo, Sprague Dawley rat; details: for clinical score: 15 min; for clinical score vs similar doses of treprostinil: both doses
Experimental: as §1, §2
A Clinical observation score was assigned by assessing for redness, swelling and paw placement.

[3] = Solution stability in vehicle (UPLC area %); assay type: physicochemical; details: for Solution stability, T0 Purity / T0 Residual Treprostinil: 20 mM sodium phosphate dibasic with 125 mM sodium chloride; for Solution stability, T0 Purity: ambient; for Solution stability, T24 hours Purity / Solution stability, T72 hours Purity / T24 Residual Treprostinil / T72 Residual Treprostinil: same vehicle
Experimental: (§3) Each prodrug was dissolved in a vehicle containing 20 mM sodium phosphate dibasic with 125 mM sodium chloride. Prodrugs were prepared at saturation concentrations by weighing 15-30 mg of prodrug in to a 4 mL clear glass vial and dissolving in an appropriate volume of vehicle (0.5-1.0 mL) to achieve a nominal saturation concentration of 30 mg/mL. The solutions were mixed for 23 hours on a rotating mixer. […] The resultant supernatant solutions were isolated from undissolved prodrug by centrifugation at 15000 RPM for 15 min. Supernatants were transferred to clear glass vials and stored at ambient temperature. […] The resultant samples were assayed against treprostinil to determine prodrug concentration. At each testing interval (0, 24, 72 hours) the supernatant was assayed for prodrug concentration and purity by area %.

[4] = Equilibrium solubility in vehicle; assay type: physicochemical; details: 20 mM sodium phosphate dibasic with 125 mM sodium chloride; for solubility thermodynamic at 23 h: read-out: Equilibrium solubility, T0 hours Concentration; for solubility thermodynamic at 24 h: read-out: Equilibrium solubility, T24 hours Concentration; for solubility thermodynamic at 72 h: read-out: Equilibrium solubility, T72 hours Concentration
Experimental: as §3

Sprague Dawley rats [5] = experiment: Rat intraplantar injection model, thermal pain sensitivity (Example 9); assay type: in vivo, Sprague Dawley rat; details: both doses (1 and 100 μg/mL); both time points
Experimental: as §1, §2
The sensitivity of animals to a thermal pain stimulus was assessed immediately following the von Frey test. The time until withdrawal of the right-injected leg from a heat source was measured, and the lower (faster) the time of response represents a greater sensitivity to the stimulus. The test was performed 15 and 90 minutes post-Test Item injection.

[6] = Stability in 200 mM potassium phosphate buffer (pH 7.4); assay type: physicochemical; details: 1 μM
Experimental: According to the earlier aqueous solution stability study, all prodrugs are stable in 20 mM Sodium Phosphate dibasic with 125 mM NaCl at saturation concentrations (3-30 mg/ml). Also, in the method development work, it was also observed that the most unstable prodrugs III, IV and XIV were stable in 200 mM potassium phosphate buffer (pH 7.4) at a low concentration of 1 μM.

[7] = only the 1 μg/mL dose, both time points
[8] = 100 μg/mL (cycle 1), 90 minutes post-injection
[9] = aqueous buffer, thermodynamic from solid, T0 hours
[10] = aqueous buffer, thermodynamic from solid, T24 hours
[11] = aqueous buffer, thermodynamic from solid, T72 hours
[12] = 1 μg/mL or 100 μg/mL, 15 and 90 minutes post-injection

Compound	clinical score (Sprague Dawley rats [2]; 100 μg/mL (cycle 1))	Solution stability, T0 Purity [3]	Solution stability, T24 hours Purity [3]	Solution stability, T72 hours Purity [3]	solubility thermodynamic at 23 h [4, 9]	solubility thermodynamic at 24 h [4, 10]	solubility thermodynamic at 72 h [4, 11]	T0 Residual Treprostinil [3]	T24 Residual Treprostinil [3]	T72 Residual Treprostinil [3]	further results
CCCCC[C@H](O)CC[C@@H]1[C@H]2Cc3cccc(OCC(=O)O)c3C[C@H]2C[C@H]1OC(=O)N(C)C [Prodrug I, treprostinil ring carbamate]	non-zero										von Frey withdrawal force threshold vs PBS-treated group (Sprague Dawley rats [1]; 1 μg/mL, both time points post-injection): no statistically significant difference; von Frey withdrawal force threshold vs PBS-treated group (Sprague Dawley rats [1]; 100 μg/mL, 15 minutes post-injection): no statistically significant difference; von Frey withdrawal force threshold vs PBS-treated group (Sprague Dawley rats [1]; 100 μg/mL, 90 minutes post-injection): statistically significant increased sensitivity; sensitivity to mechanical stimulation vs similar dose of treprostinil (Sprague Dawley rats [1]; [7]): reduced sensitivity; clinical score vs PBS group (Sprague Dawley rats [2]; [8]): non-zero; also recorded: statistically significant increase in the clinical score; clinical score vs similar dose of treprostinil (Sprague Dawley rats [2]; [7]): reduced clinical score
CCCCC[C@H](O)CC[C@@H]1[C@H]2Cc3cccc(OCC(=O)NC(CC(=O)O)C(=O)O)c3C[C@H]2C[C@H]1O (stereo partly drawn) [Prodrug XII, treprostinil aspartic acid amide]		98.70 % Area	98.68 % Area	98.58 % Area	7.4 mg/mL (≈ 14.6 mM)	7.5 mg/mL (≈ 14.8 mM)	7.4 mg/mL (≈ 14.6 mM)				
CCCCC[C@H](O)CC[C@@H]1[C@H]2Cc3cccc(OCC(=O)N[C@@H](C)C(=O)O)c3C[C@H]2C[C@H]1O [Prodrug X, treprostinil alanine amide]		96.59 % Area	96.32 % Area	96.54 % Area	10 mg/mL (≈ 21.7 mM)	10.6 mg/mL (≈ 23 mM)	11.3 mg/mL (≈ 24.5 mM)	0.08 % Area	0.08 % Area	0.08 % Area	
CCCCC[C@H](O)CC[C@@H]1[C@H]2Cc3cccc(OCC(=O)N[C@@H](CO)C(=O)O)c3C[C@H]2C[C@H]1O [Prodrug XIII, treprostinil serine amide]		97.66 % Area	97.81 % Area	97.58 % Area	3.2 mg/mL (≈ 6.7 mM)	3.7 mg/mL (≈ 7.75 mM)	3.8 mg/mL (≈ 7.96 mM)				solubility at 23 h ([4]; aqueous buffer, thermodynamic from solid, approximate, read-out: Solubility in the selected vehicle): ~3.5 mg/mL (≈ 7.33 mM)
CCCCC[C@@H](CC[C@@H]1[C@H]2Cc3cccc(OCC(=O)O)c3C[C@H]2C[C@H]1O)OC(=O)N(C)C [Prodrug II, treprostinil side-chain carbamate]	non-zero										von Frey withdrawal force threshold vs PBS-treated group (Sprague Dawley rats [1]; [12]): no statistically significant difference; sensitivity to mechanical stimulation vs similar doses of treprostinil (Sprague Dawley rats [1]; both time points): statistically significant reduced sensitivity; clinical score vs PBS group (Sprague Dawley rats [2]; [8]): non-zero; clinical score vs PBS group (Sprague Dawley rats [2]; 100 μg/mL, both time points): not statistically significantly different; clinical score vs similar doses of treprostinil (Sprague Dawley rats [2]; both time points): reduced clinical score
CCCCC[C@H](O)CC[C@@H]1[C@H]2Cc3cccc(OCC(=O)NC(C(=O)O)C(C)C)c3C[C@H]2C[C@H]1O (stereo partly drawn) [Prodrug XI, treprostinil valine amide]		99.49 % Area	99.39 % Area	98.92 % Area	11.5 mg/mL (≈ 23.5 mM)	11.3 mg/mL (≈ 23.1 mM)	11.5 mg/mL (≈ 23.5 mM)				
treprostinil monomethyl carbamate [Prodrug VIII]	non-zero	96.41 % Area	96.40 % Area	96.34 % Area				0.11 % Area	0.11 % Area	0.15 % Area	von Frey withdrawal force threshold vs PBS-treated group (Sprague Dawley rats [1]; [12]): no statistically significant difference; sensitivity to mechanical stimulation vs similar doses of treprostinil (Sprague Dawley rats [1]; both time points): statistically significant reduced sensitivity; thermal paw withdrawal time vs PBS group (Sprague Dawley rats [5]): trend toward reduction in the time of response; clinical score vs PBS group (Sprague Dawley rats [2]; 100 μg/mL, both time points): not statistically significantly different; clinical score vs similar doses of treprostinil (Sprague Dawley rats [2]; both time points): reduced clinical score; Equilibrium solubility, T0 hours Concentration ([4]; T0 hours): 11.0 mg/mL; Equilibrium solubility, T24 hours Concentration ([4]; T24 hours): 10.5 mg/mL; Equilibrium solubility, T72 hours Concentration ([4]; T72 hours): 10.9 mg/mL
CCCCC[C@H](O)CC[C@@H]1[C@H]2Cc3cccc(OCC(=O)O)c3C[C@H]2C[C@H]1OC(=O)OC [Prodrug III, cyclopentyl methyl carbonate of treprostinil]		94.48 % Area	94.31 % Area	94.61 % Area	6.1 mg/mL (≈ 13.6 mM)	6 mg/mL (≈ 13.4 mM)	6.2 mg/mL (≈ 13.8 mM)	0.15 % Area	0.14 % Area	0.15 % Area	stability in buffer [6]: stable

Reference: US11672775B2, “Treprostinil prodrugs” (United Therapeutics Corporation, priority 2016, dated 2023)
